Laboratory results: PMC5341695 (Biochemical pharmacology, 2016)
Several values for one entry are separate records, joined by “and”; a condition that tells them apart may be missing. Identical values can stand only once. Like-named read-outs stand apart in the source and are kept apart here.

Tests used:
[1] = biological target: T1, mouse Pgp reconstituted in liposomes (Mus musculus, UniProt P21447); conditions: 3.2 mM (saturating) AMPPNP, no verapamil
[2] = biological target: mouse Pgp reconstituted into liposomes (Mus musculus, UniProt P21447)
[3] = biological target: T1, mouse Pgp reconstituted in liposomes; experiment: AMPPNP-induced quenching of Pgp intrinsic tryptophan fluorescence
[4] = biological target: wild-type his-tagged mouse Pgp transporter reconstituted into liposomes (Mus musculus, UniProt P21447); experiment: Pgp-coupled ATPase activity
[5] = 3.2 mM AMPPNP, 1 µM Pgp, no verapamil

With `Nc1ncnc2c1ncn2[C@@H]1O[C@H](COP(=O)([O-])OP(=O)([O-])NP(=O)([O-])[O-])[C@@H](O)[C@H]1O.[Li+].[Li+].[Li+].[Li+]` [AMPPNP, Adenosine 5’-(β,γ-imido)triphosphate lithium salt] the KSV acrylamide quenching [1] was 0.97 ± 0.16 M⁻¹, the “decrease of average STDD amplification factor of AMPPNP” value ([2]; 3.2 mM AMPPNP and 8 µM verapamil) was 15% and the “increase of average STDD amplification factors of AMPPNP” value ([2]; 3.2 mM AMPPNP and 1 mM verapamil) was “more than 20%”. The “average STDD amplification factor for AMPPNP” value [2, 5] was 63 ± 51, the “average STDD amplification factor, purine base” value [2, 5] was 79 ± 64 and the “average STDD amplification factor, ribose sugar” value [2, 5] was 40 ± 11. The “K1 (low concentration phase)” value ([3]; 37 °C, data not shown) was 8 µM⁻¹, the “K2 (high concentration phase)” value ([3]; 37 °C, data not shown) was 0.017 µM⁻¹ and the “K1 (low concentration phase, dynamic quenching)” value ([3]; fit to equation 6) was 6.66 +/− 3.41 µM ^−1. For the same molecule, the “K2 (high concentration phase, static quenching)” value ([3]; fit to equation 6) was 0.022 +/− 0.006 µM ^−1, the “fraction quenched, high concentration phase (FH/F0)” value ([3]; fit to equation 6) was 0.074 and the “fraction quenched, low concentration phase (FL/F0)” value ([3]; fit to equation 6) was 0.16. The Kd ([3]; read-out: KD of AMPPNP for Pgp, from high concentration (static) quenching phase) was 45 µM and the “decrease of Pgp tryptophan fluorescence” value ([3]; saturating AMPPNP concentration, 1 µM Pgp) was “about 15%”.
In the case of `Nc1ncnc2c1ncn2[C@@H]1O[C@H](COP(=O)(O)OP(=O)([O-])OP(=O)([O-])O)[C@@H](O)[C@H]1O.[Na+].[Na+]` [ATP, Disodium ATP], the “VMAX basal Pgp ATPase activity” value ([4]; ATP titration in the absence of verapamil, Equation 1) is reported as 619 ± 18 nmol/min/mg, the “increase of ATP affinity in the presence of two bound verapamil molecules” value ([4]; COPASI fit, KD5 versus KD3, saturating verapamil) is reported as ~ 4 fold and 4 fold and the “Vmax0 (basal ATPase activity, E-ATP)” value ([4]; COPASI fit, average over […]-3.2 mM ATP) is reported as 672 ± 93 nmol/min/mg. For the same molecule, the “VMAX of Pgp-coupled ATPase with ATP alone (discussion)” value ([4]; no verapamil) was 500 to 700 nmol/min/mg, the Kd ([4]; read-out: KD4 (ATP to EV, one bound verapamil), COPASI fit, 0.5 mM ATP data set) was 1490 µM and the Kd ([4]; read-out: KD4 (ATP to EV, one bound verapamil), COPASI fit, 1 mM ATP data set) was 1340 µM. For the same molecule, the Kd ([4]; read-out: KD4 (ATP to EV, one bound verapamil), COPASI fit, 2 mM ATP data set) was 1030 µM, the Kd ([4]; read-out: KD4 (ATP to EV, one bound verapamil), COPASI fit, 3.2 mM ATP data set) was 1000 µM and the Kd ([4]; read-out: KD4 (ATP to EV, one bound verapamil), COPASI fit, […] ATP data set) was 1350 µM. For the same molecule, the Kd ([4]; read-out: KD5 (ATP to EVV, two bound verapamil), COPASI fit, 3.2 mM ATP data set) was 210 µM and the Km ([4]; read-out: Km for ATP in the presence of Na3VO4, 200 µM Na3VO4, range of ATP concentrations, Equation 1) was 906 ± 476 µM.
With `[Na+].[Na+].[Na+].[O]=[V]([O-])([O-])[O-]` [Na3VO4, sodium orthovanadate] the “mode of inhibition of Pgp-mediated ATP hydrolysis” value ([4]; 200 µM) was “non-competitive inhibitor”, the “VMAX Pgp ATPase activity in the presence of Na3VO4” value ([4]; 200 µM Na3VO4, range of ATP concentrations, Equation 1) was 172 ± 24 nmol/min/mg and the “Na3VO4 sensitive VMAX for Pgp” value ([4]; difference in VMAX without and with 200 µM Na3VO4) was 447 ± 30 nmol/min/mg.
